Assay results reported in patent US7723023B2, “Use of intrinsic reporters of cell signaling for high content drug profiling and toxicity screening” (Mount Sinai School of Medicine, priority 2001, dated 2010).

Tests used:
PC12 cells [1] = test: IRC (c-fos, egr1) response to cytotoxin in PC12 cells by real-time PCR; assay type: cell-based, rat; conditions: 200 μM H2O2, 1 hour exposure
Procedure: The values shown are mean±s.e.m.
The samples assayed were the same as those used to generate FIG. 7.
(§1) This level of oxidative stress induced by H2O2 leads to cell death via apoptosis, as determined by increased Caspase 3 activity by 8 hours and a reduced MTT assay response at 24 hours. […] This would allow the prediction of the toxicity of a candidate drug in this cellular target by comparison of the pattern obtained with this drug to those observed with known toxins. Thus the toxins would generate a library of reference landscapes that would serve as predictors of the effects of candidate drugs. The comparison between candidate compounds and reference landscapes could be achieved by representing each IRC at one concentration as a different axis in a conceptual multidimensional space (or matrix) and determining the Euclidean distance between the location of the candidate response profile and that of the reference landscape. Candidates that are closer to the position of known toxins would be predicted to have a higher likelihood of inducing similar toxicity at the corresponding concentrations.

PC12 cells [2] = test: Cell death of PC12 cells under oxidative stress (Caspase 3 activity, MTT assay); assay type: cell-based, rat
Procedure: as §1

[3] = tested on: PC12 cells that stably express the dopamine D2 receptor; conditions: 200 μM H2O2, 1 h, PC12-D2R cells
Procedure: Early genes β-actin, PC3, c-fos, and egr1 were assayed by real-time PCR.

[4] = tested on: serotonin 5-HT2A receptor; test: Early gene expression in mouse somatosensory cortex after drug injection, real-time PCR; assay type: in vivo; conditions: 1 h after i.p. exposure
[5] = tested on: human serotonin 5-HT2A receptor; test: Gene response landscape of IRCs in HEK293 cells expressing 5-HT2A receptor; assay type: cell-based; conditions: 10 genes, 8 concentrations, 1 hour, HEK293 cells expressing 5-HT2A receptors
Procedure: FIG. 6 is the gene response landscape for 5-HT and DOI in HEK293 cells expressing 5-HT2A receptors. The levels of gene induction in response to 8 concentrations of each agonist for 10 genes were determined in quadruplicate samples. The height of each peak represents the level of gene induction, expressed as fold-change. […] For example, the rightmost peak is highest with DOI exposure, but is lower with 5-HT exposure.
HEK293 cells were genetically engineered to stably express the human serotonin 5-HT2A receptor. Replicate aliquots of cells were treated with varying concentrations of 5-HT and DOI and the levels of a panel of IRCS after 1 hour exposure were determined by SYBR® green real-time PCR.

Structure (SMILES)	cfos mRNA level (PC12 cells [1])	egr1 mRNA level (PC12 cells [1])	MTT assay response (PC12 cells [2]; 200 μM H2O2, at 24 hours)	Caspase 3 activity (PC12 cells [2]; 200 μM H2O2, by 8 hours)	Early genes induced (β-actin, PC3, c-fos, egr1 assayed) [3]	Induction of the 8 early genes in serotonin 5HT2A receptor gene-knockout mouse [4]	Level of gene induction (fold-change) compared with 5-HT [5]
OO [H2O2]	marked increase	marked increase	reduced	increased	Three genes were found to be induced at 1 h: PC3, c-fos, and egr1		
CCN(CC)C(=O)[C@@H]1C=C2c3cccc4[nH]cc(c34)C[C@H]2N(C)C1 [LSD]						no induction was observed	
COc1cc(CC(C)N)c(OC)cc1I (centres unmarked) [DOI]						no induction was observed	generally lower responses
